Laboratory results: publication PMC4823954, “From fighting depression to conquering tumors: a novel tricyclic thiazepine compound as a tubulin polymerization inhibitor” (Cell Death & Disease, 2016)

Legend:
Test in all cases: KINOMEscan
Assay type in all cases: binding
Conditions in all cases: read-out: % Ctrl
TEC = biological target: T1, TEC (Homo sapiens, UniProt P42680)
T1 construct: purchased DiscoveRx KINOMEscan
Protocol: (§1) The binding assay for 442 non-mutant kinases was performed using KINOMEscan (DiscoveRx Corporation, Fremont, CA, USA) as reported previously.[58], [59] TBPT was screened at concentrations of 5 and 10 μM to identify the affected kinases. KINOMEscan is based on a competition reaction that quantitatively measures the ability of a test compound to compete with an active site-directed ligand for binding to the kinase active site. […] After the assay plates were incubated with shaking for 1 h, the liganded beads were washed with washing buffer (1 × PBS and 0.05% Tween 20). Then, the beads were re-suspended in elution buffer (1 × PBS, 0.05% Tween 20, and 0.5 μM ligand) and incubated with shaking for 30 min. The kinase concentration in the eluates was measured via qPCR. The results are represented as ‘%Ctrl', which was calculated using the following formula: (test compound signal–positive control signal)/(DMSO signal–positive control signal) × 100%. A lower % Ctrl indicates stronger binding to the kinase active site.

PRKCE = biological target: T2, PRKCE (Homo sapiens, UniProt Q02156)
T2 construct: purchased DiscoveRx KINOMEscan
Protocol: as §1

LZK = biological target: T3, LZK (Homo sapiens, UniProt O43283)
T3 construct: purchased DiscoveRx KINOMEscan
Protocol: as §1

MEK4 = biological target: T4, MEK4 (Homo sapiens, UniProt P45985)
T4 construct: purchased DiscoveRx KINOMEscan
Protocol: as §1

CSNK2A2 = biological target: T5, CSNK2A2 (Homo sapiens, UniProt P19784)
T5 construct: purchased DiscoveRx KINOMEscan
Protocol: as §1

DAPK1 = biological target: T6, DAPK1 (Homo sapiens, UniProt P53355)
T6 construct: purchased DiscoveRx KINOMEscan
Protocol: as §1

ULK1 = biological target: T7, ULK1 (Homo sapiens, UniProt O75385)
T7 construct: purchased DiscoveRx KINOMEscan
Protocol: as §1

ZAP70 = biological target: T8, ZAP70 (Homo sapiens, UniProt P43403)
T8 construct: purchased DiscoveRx KINOMEscan
Protocol: as §1

IRAK4 = biological target: T9, IRAK4 (Homo sapiens, UniProt Q9NWZ3)
T9 construct: purchased DiscoveRx KINOMEscan
Protocol: as §1

YANK1 = biological target: T10, YANK1 (Homo sapiens, UniProt Q8WU08)
T10 construct: purchased DiscoveRx KINOMEscan
Protocol: as §1

DDR2 = biological target: T11, DDR2 (Homo sapiens, UniProt Q16832)
T11 construct: purchased DiscoveRx KINOMEscan
Protocol: as §1

PFTK1 = biological target: T12, PFTK1 (Homo sapiens, UniProt O94921)
T12 construct: purchased DiscoveRx KINOMEscan
Protocol: as §1

[1] = biological target: T13, JAK2(JH1domain-catalytic) (Homo sapiens, UniProt O60674)
T13 construct: JAK2(JH1domain-catalytic); purchased DiscoveRx KINOMEscan
Protocol: as §1

PAK1 = biological target: T14, PAK1 (Homo sapiens, UniProt Q13153)
T14 construct: purchased DiscoveRx KINOMEscan
Protocol: as §1

CDK11 = biological target: T15, CDK11 (Homo sapiens, UniProt Q9BWU1)
T15 construct: purchased DiscoveRx KINOMEscan
Protocol: as §1

MYLK4 = biological target: T16, MYLK4 (Homo sapiens, UniProt Q86YV6)
T16 construct: purchased DiscoveRx KINOMEscan
Protocol: as §1

SIK2 = biological target: T17, SIK2 (Homo sapiens, UniProt Q9H0K1)
T17 construct: purchased DiscoveRx KINOMEscan
Protocol: as §1

HCK = biological target: T18, HCK (Homo sapiens, UniProt P08631)
T18 construct: purchased DiscoveRx KINOMEscan
Protocol: as §1

PHKG2 = biological target: T19, PHKG2 (Homo sapiens, UniProt P15735)
T19 construct: purchased DiscoveRx KINOMEscan
Protocol: as §1

[2] = biological target: T20, JAK1(JH1domain-catalytic) (Homo sapiens, UniProt P23458)
T20 construct: JAK1(JH1domain-catalytic); purchased DiscoveRx KINOMEscan
Protocol: as §1

TAK1 = biological target: T21, TAK1 (Homo sapiens, UniProt O43318)
T21 construct: purchased DiscoveRx KINOMEscan
Protocol: as §1

PRKCH = biological target: T22, PRKCH (Homo sapiens, UniProt P24723)
T22 construct: purchased DiscoveRx KINOMEscan
Protocol: as §1

BMPR1A = biological target: T23, BMPR1A (Homo sapiens, UniProt P36894)
T23 construct: purchased DiscoveRx KINOMEscan
Protocol: as §1

TAOK1 = biological target: T24, TAOK1 (Homo sapiens, UniProt Q7L7X3)
T24 construct: purchased DiscoveRx KINOMEscan
Protocol: as §1

TSSK1B = biological target: T25, TSSK1B (Homo sapiens, UniProt Q9BXA7)
T25 construct: purchased DiscoveRx KINOMEscan
Protocol: as §1

CLK1 = biological target: T26, CLK1 (Homo sapiens, UniProt P49759)
T26 construct: purchased DiscoveRx KINOMEscan
Protocol: as §1

ULK3 = biological target: T27, ULK3 (Homo sapiens, UniProt Q6PHR2)
T27 construct: purchased DiscoveRx KINOMEscan
Protocol: as §1

NEK7 = biological target: T28, NEK7 (Homo sapiens, UniProt Q8TDX7)
T28 construct: purchased DiscoveRx KINOMEscan
Protocol: as §1

DYRK1B = biological target: T29, DYRK1B (Homo sapiens, UniProt Q9Y463)
T29 construct: purchased DiscoveRx KINOMEscan
Protocol: as §1

BMPR1B = biological target: T30, BMPR1B (Homo sapiens, UniProt O00238)
T30 construct: purchased DiscoveRx KINOMEscan
Protocol: as §1

T5 sequence (P19784 whole entry): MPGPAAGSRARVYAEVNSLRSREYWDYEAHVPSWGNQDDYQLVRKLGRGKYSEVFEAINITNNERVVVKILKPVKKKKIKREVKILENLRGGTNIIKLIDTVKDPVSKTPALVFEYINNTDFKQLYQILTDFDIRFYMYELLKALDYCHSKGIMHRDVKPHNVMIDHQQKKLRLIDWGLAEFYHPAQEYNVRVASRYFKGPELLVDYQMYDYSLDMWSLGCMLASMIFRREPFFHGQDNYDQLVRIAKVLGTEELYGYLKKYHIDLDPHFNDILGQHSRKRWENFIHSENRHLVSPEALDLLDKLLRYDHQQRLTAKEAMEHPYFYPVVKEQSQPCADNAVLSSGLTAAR
T27 sequence (Q6PHR2 whole entry): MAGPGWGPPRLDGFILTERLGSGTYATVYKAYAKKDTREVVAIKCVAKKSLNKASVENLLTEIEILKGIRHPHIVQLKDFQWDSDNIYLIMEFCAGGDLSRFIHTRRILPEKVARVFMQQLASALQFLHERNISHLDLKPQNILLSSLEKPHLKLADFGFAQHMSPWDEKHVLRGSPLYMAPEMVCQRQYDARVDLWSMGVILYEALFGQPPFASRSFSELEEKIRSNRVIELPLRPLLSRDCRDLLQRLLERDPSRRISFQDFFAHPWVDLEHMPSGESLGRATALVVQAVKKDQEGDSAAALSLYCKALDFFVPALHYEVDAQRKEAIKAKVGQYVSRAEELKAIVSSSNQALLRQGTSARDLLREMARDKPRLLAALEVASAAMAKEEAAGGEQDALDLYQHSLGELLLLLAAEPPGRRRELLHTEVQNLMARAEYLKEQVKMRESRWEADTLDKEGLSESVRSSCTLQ
T3 sequence (O43283 whole entry): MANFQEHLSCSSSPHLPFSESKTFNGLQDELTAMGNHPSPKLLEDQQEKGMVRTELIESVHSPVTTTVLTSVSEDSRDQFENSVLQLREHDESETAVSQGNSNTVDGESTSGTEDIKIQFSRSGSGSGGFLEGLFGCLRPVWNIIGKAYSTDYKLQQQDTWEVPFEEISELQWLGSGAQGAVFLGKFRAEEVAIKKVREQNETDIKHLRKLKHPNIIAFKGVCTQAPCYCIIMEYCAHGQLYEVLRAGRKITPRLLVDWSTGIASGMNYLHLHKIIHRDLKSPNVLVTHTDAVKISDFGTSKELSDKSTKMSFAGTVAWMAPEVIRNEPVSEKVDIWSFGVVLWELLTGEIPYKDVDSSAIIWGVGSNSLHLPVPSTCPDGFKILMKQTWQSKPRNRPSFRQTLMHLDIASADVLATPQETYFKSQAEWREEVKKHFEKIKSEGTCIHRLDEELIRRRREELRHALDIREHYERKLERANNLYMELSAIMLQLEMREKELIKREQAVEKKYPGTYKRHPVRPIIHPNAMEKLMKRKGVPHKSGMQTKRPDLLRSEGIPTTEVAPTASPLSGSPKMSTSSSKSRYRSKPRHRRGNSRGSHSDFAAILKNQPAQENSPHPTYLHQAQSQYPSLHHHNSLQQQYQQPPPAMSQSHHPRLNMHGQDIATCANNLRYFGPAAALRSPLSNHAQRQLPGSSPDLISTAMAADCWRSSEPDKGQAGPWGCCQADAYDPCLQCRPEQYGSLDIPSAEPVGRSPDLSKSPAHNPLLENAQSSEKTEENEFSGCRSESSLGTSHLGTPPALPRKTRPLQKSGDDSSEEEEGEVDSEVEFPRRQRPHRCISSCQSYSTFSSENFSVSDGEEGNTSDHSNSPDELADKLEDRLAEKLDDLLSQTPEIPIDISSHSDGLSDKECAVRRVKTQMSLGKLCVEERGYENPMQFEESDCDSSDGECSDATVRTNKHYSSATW
T21 sequence (O43318 whole entry): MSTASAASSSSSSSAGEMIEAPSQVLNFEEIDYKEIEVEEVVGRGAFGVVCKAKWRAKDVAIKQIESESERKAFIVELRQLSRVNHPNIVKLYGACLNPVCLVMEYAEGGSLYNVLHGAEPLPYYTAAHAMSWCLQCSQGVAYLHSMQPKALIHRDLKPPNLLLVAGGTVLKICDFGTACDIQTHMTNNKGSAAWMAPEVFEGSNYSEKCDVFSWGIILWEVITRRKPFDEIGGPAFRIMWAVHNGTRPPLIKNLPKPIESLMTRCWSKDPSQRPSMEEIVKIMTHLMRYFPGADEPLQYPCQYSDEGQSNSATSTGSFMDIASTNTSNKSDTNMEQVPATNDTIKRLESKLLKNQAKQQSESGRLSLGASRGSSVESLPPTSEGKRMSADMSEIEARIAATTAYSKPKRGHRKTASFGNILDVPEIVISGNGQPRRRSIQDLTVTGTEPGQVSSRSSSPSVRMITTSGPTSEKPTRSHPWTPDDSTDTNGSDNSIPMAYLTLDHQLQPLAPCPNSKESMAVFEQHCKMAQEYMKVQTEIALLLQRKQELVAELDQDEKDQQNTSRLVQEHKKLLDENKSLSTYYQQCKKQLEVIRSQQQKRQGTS
T26 sequence (P49759 whole entry): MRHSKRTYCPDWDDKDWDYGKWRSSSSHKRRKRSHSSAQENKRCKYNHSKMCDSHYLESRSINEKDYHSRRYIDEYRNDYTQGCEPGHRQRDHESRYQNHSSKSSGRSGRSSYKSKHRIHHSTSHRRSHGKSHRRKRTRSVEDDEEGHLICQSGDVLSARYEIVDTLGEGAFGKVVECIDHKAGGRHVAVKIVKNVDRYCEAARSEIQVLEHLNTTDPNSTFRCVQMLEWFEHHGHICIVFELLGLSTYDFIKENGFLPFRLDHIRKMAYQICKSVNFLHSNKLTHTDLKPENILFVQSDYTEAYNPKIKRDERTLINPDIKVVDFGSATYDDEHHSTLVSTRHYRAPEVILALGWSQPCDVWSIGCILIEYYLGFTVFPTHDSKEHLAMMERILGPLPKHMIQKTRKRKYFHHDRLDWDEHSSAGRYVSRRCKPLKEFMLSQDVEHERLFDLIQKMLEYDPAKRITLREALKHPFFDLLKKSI
T7 sequence (O75385 whole entry): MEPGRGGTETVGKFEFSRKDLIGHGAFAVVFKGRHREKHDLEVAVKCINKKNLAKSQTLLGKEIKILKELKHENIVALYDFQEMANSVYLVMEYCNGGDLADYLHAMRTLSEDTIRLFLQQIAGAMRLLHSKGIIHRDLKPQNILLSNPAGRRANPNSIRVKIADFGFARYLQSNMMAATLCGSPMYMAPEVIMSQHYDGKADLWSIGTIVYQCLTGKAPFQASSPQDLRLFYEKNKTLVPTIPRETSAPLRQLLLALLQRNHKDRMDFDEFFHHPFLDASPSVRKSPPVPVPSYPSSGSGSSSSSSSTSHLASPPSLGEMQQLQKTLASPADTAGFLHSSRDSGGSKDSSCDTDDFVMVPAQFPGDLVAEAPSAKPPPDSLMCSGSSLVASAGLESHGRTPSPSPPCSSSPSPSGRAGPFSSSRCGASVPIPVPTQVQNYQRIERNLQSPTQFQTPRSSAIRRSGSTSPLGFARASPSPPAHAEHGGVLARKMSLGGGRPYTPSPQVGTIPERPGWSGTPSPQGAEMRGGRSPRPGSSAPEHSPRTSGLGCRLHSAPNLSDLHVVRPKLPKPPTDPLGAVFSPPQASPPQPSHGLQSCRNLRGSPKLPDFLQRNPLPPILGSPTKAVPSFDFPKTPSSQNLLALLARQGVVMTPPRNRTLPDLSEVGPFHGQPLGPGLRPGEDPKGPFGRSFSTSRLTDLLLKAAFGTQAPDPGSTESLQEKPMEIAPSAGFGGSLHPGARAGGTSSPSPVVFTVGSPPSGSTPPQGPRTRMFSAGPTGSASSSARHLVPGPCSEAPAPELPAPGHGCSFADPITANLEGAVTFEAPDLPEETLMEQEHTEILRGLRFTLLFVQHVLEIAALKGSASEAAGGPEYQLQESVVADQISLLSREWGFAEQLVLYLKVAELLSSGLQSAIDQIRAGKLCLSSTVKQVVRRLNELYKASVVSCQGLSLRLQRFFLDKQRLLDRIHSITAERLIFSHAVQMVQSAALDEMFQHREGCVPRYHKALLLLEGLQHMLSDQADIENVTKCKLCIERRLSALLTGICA
T29 sequence (Q9Y463 whole entry): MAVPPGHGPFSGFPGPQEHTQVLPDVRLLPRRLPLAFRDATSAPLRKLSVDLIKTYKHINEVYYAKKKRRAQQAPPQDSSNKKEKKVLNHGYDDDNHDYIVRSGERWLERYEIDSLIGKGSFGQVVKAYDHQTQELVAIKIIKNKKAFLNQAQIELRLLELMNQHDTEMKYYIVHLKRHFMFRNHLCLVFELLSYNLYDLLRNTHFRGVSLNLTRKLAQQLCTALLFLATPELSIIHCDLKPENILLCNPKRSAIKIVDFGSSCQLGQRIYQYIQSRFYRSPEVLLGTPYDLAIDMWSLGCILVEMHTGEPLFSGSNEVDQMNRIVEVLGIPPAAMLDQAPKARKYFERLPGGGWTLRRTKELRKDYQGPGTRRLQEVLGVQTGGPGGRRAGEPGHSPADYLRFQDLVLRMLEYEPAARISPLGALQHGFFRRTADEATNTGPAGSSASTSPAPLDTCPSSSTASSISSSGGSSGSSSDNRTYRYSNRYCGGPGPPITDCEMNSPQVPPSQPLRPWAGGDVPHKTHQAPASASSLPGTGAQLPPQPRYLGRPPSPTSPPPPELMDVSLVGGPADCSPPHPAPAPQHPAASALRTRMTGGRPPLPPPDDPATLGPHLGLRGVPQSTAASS
T19 sequence (P15735 whole entry): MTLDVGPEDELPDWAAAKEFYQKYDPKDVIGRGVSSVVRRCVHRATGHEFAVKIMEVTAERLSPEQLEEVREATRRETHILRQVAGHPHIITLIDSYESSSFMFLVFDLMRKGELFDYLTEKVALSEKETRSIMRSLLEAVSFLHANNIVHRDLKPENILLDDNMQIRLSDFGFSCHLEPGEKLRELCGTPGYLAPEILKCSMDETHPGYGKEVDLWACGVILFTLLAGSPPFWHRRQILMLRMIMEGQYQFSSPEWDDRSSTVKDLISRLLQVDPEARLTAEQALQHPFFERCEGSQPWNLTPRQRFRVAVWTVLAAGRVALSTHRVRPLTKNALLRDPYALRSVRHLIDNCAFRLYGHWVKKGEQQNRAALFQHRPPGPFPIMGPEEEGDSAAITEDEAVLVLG

Cc1ccc(C2=Nc3cccnc3S(=O)(=O)c3ccccc32)cc1 [TBPT, 6-(p-tolyl)benzo[f] pyrido[2,3-b][1,4] thiazepine 11,11-dioxide]
remaining binding at 5 µM (TEC; 5 μM): 90% | remaining binding at 10 µM (TEC; 10 μM): 99% | remaining binding at 5 µM (PRKCE; 5 μM): 100% | remaining binding at 10 µM (PRKCE; 10 μM): 100% | remaining binding at 5 µM (LZK; 5 μM): 100% | remaining binding at 10 µM (LZK; 10 μM): 93% | remaining binding at 5 µM (MEK4; 5 μM): 82% | remaining binding at 10 µM (MEK4; 10 μM): 100% | remaining binding at 5 µM (CSNK2A2; 5 μM): 100% | remaining binding at 10 µM (CSNK2A2; 10 μM): 100% | remaining binding at 5 µM (DAPK1; 5 μM): 83% | remaining binding at 10 µM (DAPK1; 10 μM): 100% | remaining binding at 5 µM (ULK1; 5 μM): 100% | remaining binding at 10 µM (ULK1; 10 μM): 83% | remaining binding at 5 µM (ZAP70; 5 μM): 100% | remaining binding at 10 µM (ZAP70; 10 μM): 99% | remaining binding at 5 µM (IRAK4; 5 μM): 100% | remaining binding at 10 µM (IRAK4; 10 μM): 88% | remaining binding at 5 µM (YANK1; 5 μM): 96% | remaining binding at 10 µM (YANK1; 10 μM): 100% | remaining binding at 5 µM (DDR2; 5 μM): 100% | remaining binding at 10 µM (DDR2; 10 μM): 99% | remaining binding at 5 µM (PFTK1; 5 μM): 100% | remaining binding at 10 µM (PFTK1; 10 μM): 100% | remaining binding at 5 µM ([1]; 5 μM): 84% | remaining binding at 10 µM ([1]; 10 μM): 98% | remaining binding at 5 µM (PAK1; 5 μM): 81% | remaining binding at 10 µM (PAK1; 10 μM): 92% | remaining binding at 5 µM (CDK11; 5 μM): 100% | remaining binding at 10 µM (CDK11; 10 μM): 100% | remaining binding at 5 µM (MYLK4; 5 μM): 94% | remaining binding at 10 µM (MYLK4; 10 μM): 99% | remaining binding at 5 µM (SIK2; 5 μM): 84% | remaining binding at 10 µM (SIK2; 10 μM): 90% | remaining binding at 5 µM (HCK; 5 μM): 93% | remaining binding at 10 µM (HCK; 10 μM): 100% | remaining binding at 5 µM (PHKG2; 5 μM): 100% | remaining binding at 10 µM (PHKG2; 10 μM): 100% | remaining binding at 5 µM ([2]; 5 μM): 95% | remaining binding at 10 µM ([2]; 10 μM): 89% | remaining binding at 5 µM (TAK1; 5 μM): 87% | remaining binding at 10 µM (TAK1; 10 μM): 93% | remaining binding at 5 µM (PRKCH; 5 μM): 82% | remaining binding at 10 µM (PRKCH; 10 μM): 100% | remaining binding at 5 µM (BMPR1A; 5 μM): 97% | remaining binding at 10 µM (BMPR1A; 10 μM): 80% | remaining binding at 5 µM (TAOK1; 5 μM): 100% | remaining binding at 10 µM (TAOK1; 10 μM): 100% | remaining binding at 5 µM (TSSK1B; 5 μM): 90% | remaining binding at 10 µM (TSSK1B; 10 μM): 100% | remaining binding at 5 µM (CLK1; 5 μM): 95% | remaining binding at 10 µM (CLK1; 10 μM): 100% | remaining binding at 5 µM (ULK3; 5 μM): 100% | remaining binding at 10 µM (ULK3; 10 μM): 100% | remaining binding at 5 µM (NEK7; 5 μM): 100% | remaining binding at 10 µM (NEK7; 10 μM): 89% | remaining binding at 5 µM (DYRK1B; 5 μM): 99% | remaining binding at 10 µM (DYRK1B; 10 μM): 100% | remaining binding at 5 µM (BMPR1B; 5 μM): 95% | remaining binding at 10 µM (BMPR1B; 10 μM): 88%
